Data set [1] addresses DR4Dw4 (DRA1*0101 DRB1*0401) (Homo sapiens, UniProt P01903+P01911, A100K/A169T/F76Y/I96L/K127E/L162R/M171V/N62H/P40V/Q125Y/R42H/S133A/S149N/S66Y/V115G/V209L/W38E). In words: Competitive binding to MHC-II protein DR4Dw4. In outline:
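Each MHC-II allele incubated with compound 16 hours at room temperature in duplicate; controls lacked compound, or both compound and MHC-II. Complexes captured 2 h at 4 °C, bound biotinylated peptide detected via europium-streptavidin and DELFIA enhancement, time-resolved fluorescence read at ex 340/em 613 (615) nm.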

Data set [2] has as its target T1, Priess (DR4Dw4: DRA1*0101 DRB1*0401) cells (Homo sapiens, UniProt P01903+P01911, A100K/A169T/F76Y/I96L/K127E/L162R/M171V/N62H/P40V/Q125Y/R42H/S133A/S149N/S66Y/V115G/V209L/W38E).
T1 construct: MHC II Proteins Expressed on PRIESS and LG2 Cells; endogenous in cells; host or cells: Priess cells
In words: Competitive binding to MHC II proteins expressed on Priess cells. The format is cell-based. The protocol: For use in the binding assay the cells were re-suspended in medium containing 1% FCS at a density of 2.5×10^6 cells/ml.
The assay was performed in sterile 96 well polystyrene microtiter plates. A 10 fold dilution series of compounds (16 nM-1615 μM) in 1% FCS was prepared from 5 or 10 mM compound stock solutions in 10% DMSO/water. 50 μl of each compound dilution were added in duplicates to 50 μl of a 16 μM solution of indicator peptide in 1% FCS. Cell binding was initiated by adding 100 μl of 2.5×10^6 cells/ml 1% FCS to each well. Controls were included containing the DMSO concentration present in the solution with the highest compound concentration. The cells were incubated at 37° C., 6% CO2. After 4 hours the cells were washed with 200 μl PBS and lysed in 200 μl lysis buffer (50 mM sodium phosphate, 150 mM sodium chloride, 1% (w/v) NP-40, 25 mM iodoacetamide, 1 mM PMSF, 3.1% protease inhibitor cocktail: 0.32 g/l of Chymostatin, Antipain, Pepstatin A, Soybean trypsin inhibitor and Leupeptin each, pH 7.5) for 10 min.
After washing with PBS, 190 μl of cell lysate were transferred to the appropriate wells of the capture plate and incubated for 2 h at 4° C. The wells were washed six times with 200 μl/well cooled (4 to 8° C.) of 1×DELFIA wash (Wallac-ADL-GmbH, Freiburg), incubated with 100 μl of cooled Europium-streptavidin conjugate (Wallac-ADL-GmbH, Freiburg; diluted 1/1000 with DELFIA assay buffer) for 30 minutes at 4° C., again washed six times with cooled 1×DELFIA wash and, finally, incubated with 200 μl cooled DELFIA enhancement solution (Wallac-ADL-GmbH, Freiburg) for one hour at room temperature before reading the time-resolved europium fluorescence at λex Eu^3+: 340 nm and λem Eu^3+: 613 (615) nm (Wallac Victor^2 1420 Multilabel Counter, Wallac-ADL-GmbH, Freiburg).

The target in data set [3] is Cathepsin D (EC 3.4.23.5 from bovine spleen) (Bos taurus, UniProt P80209).
Data set [4] has as its system T-cell proliferation, lymph node cells of chimeric 0401-IE transgenic mice. Conditions: for Immunsupressive assays DR4-LN (Max) % Inhibition: maximal inhibition; for immunosuppressive properties as measured by a T-cell activation assay: dose-response curves; for IC50: read-out: Immunsupressive assays DR4-LN (IC50); for Immunsupressive assays DR4-LN (Max) % Inhibition / IC50: DR4-LN. In outline:
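Antigen-primed lymph node cells (1.5×10^5/well) from mice lacking murine class II and carrying a chimeric human RA-associated class II transgene, cultured 3 days with ovalbumin at half-maximal dose plus compound (~0.1–200 uM) in serum-free HL-1. Proliferation read by 3H-thymidine incorporation over the final 16 h.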

Molecules are shown by their SMILES. Values joined by “and” are separate entries in the source; they are usually repeats but may differ in a detail not shown here. Equal entries are not always repeated. Numbered stars: 1 amine (or outer) side, 2 acyl side, 3 side chain; on linkers, the order of the positions; unused ones are H or OH. Square brackets hold non-standard residues; d marks the D form. Peptide text beside a SMILES is read from it. * marks the point of attachment. ξ: configuration not given here. Gly(1-amidinopiperidin-4-yl) = N=C(N)N1CCC([C@H](N)C(=O)O)CC1; X1 = CC(C)c1oc([C@H](CO)N[*:1])nc1C(=O)[*:2]; Pro(3R-Ph) = O=C(O)[C@H]1NCC[C@@H]1c1ccccc1; Tic = O=C(O)[C@@H]1Cc2ccccc2CN1; Cha = N[C@@H](CC1CCCCC1)C(=O)O; NMe(benzyl) = CN(Cc1ccccc1)*; ξDisc = O=C(O)C1NCc2ccccc21; Nle = CCCC[C@H](N)C(=O)O; X2 = OCCOCCN(Cc1ccccc1)*; X3 = OCCOCCN*

One may read the IC50 as the concentration that inhibits the measured activity by half. In turn, `CCCC[C@H](NC(=O)[C@@H]1Cc2ccccc2CN1C(=O)[C@@H](NC(=O)[C@H](CC1CCCCC1)NC(C)=O)C1CCN(C(=N)N)CC1)C(=O)N(C)Cc1ccccc1` [Compound P74, Ac-Cha-Gpg-Tic-Nle-N(Me)Bn] (Ac-[Cha][Gly(1-amidinopiperidin-4-yl)][Tic][Nle]-{NMe(benzyl)}) yielded an IC50 in data set [1] of 3.4 µM. The molecule also had a half-inhibitory concentration (IC50) in data set [2] of 9.2 µM. The “binding to MHC class II protein expressed on the surface of Priess cells” value in data set [2] (compared to the Arg-containing equivalent) was “Improved binding”. Besides, the “Stability (Arbitrary units) Cath D 4 h” value in data set [3] stood at 104 Arbitrary units. For the same molecule, in data set [4], the “Immunsupressive assays DR4-LN (Max) % Inhibition” value is given as 102%; the “immunosuppressive properties as measured by a T-cell activation assay” value is on record as “immunosuppressive properties”; the IC50 is 16 µM and 18 µM.
Consider `CCCC[C@H](NC(=O)[C@@H]1Cc2ccccc2CN1C(=O)[C@@H](NC(=O)[C@H](CC1CCCCC1)NC(C)=O)C1CCN(C(=N)N)CC1)C(=O)NCCOCCO` [Compound P70, Ac-Cha-Gpg-Tic-Nle-N(H)CH2CH2OCH2CH2OH] (Ac-[Cha][Gly(1-amidinopiperidin-4-yl)][Tic][Nle]-X3), for which the results for the IC50 in data set [1], in data set [2] and in data set [4] were 0.44 µM, 8.6 µM and 42 µM, respectively. In addition, in data set [3], the “Stability (Arbitrary units) Cath D 4 h” value stood at 112 Arbitrary units. In addition, the “Immunsupressive assays DR4-LN (Max) % Inhibition” value in data set [4] is reported as 54%.
Regarding `CCCC[C@H](NC(=O)C1c2ccccc2CN1C(=O)[C@@H](NC(=O)[C@H](CC1CCCCC1)NC(C)=O)C1CCN(C(=N)N)CC1)C(=O)N1CC[C@H](c2ccccc2)[C@H]1C(=O)N[C@@H](CO)c1nc(C(=O)N(C)C)c(C(C)C)o1` (stereo partly drawn) [Compound P81-1] (Ac-[Cha][Gly(1-amidinopiperidin-4-yl)][ξDisc][Nle][Pro(3R-Ph)][X1]-NMe2), the half-maximal inhibitory concentration (IC50) amounted to 0.26 µM in data set [1], 3.4 µM in data set [2] and 63 µM in data set [4]. In data set [3], the “Stability (Arbitrary units) Cath D 4 h” value was found to be 106 Arbitrary units.
`CCCC[C@H](NC(=O)[C@@H]1Cc2ccccc2CN1C(=O)[C@H](CCCNC(=N)N)NC(=O)[C@H](CC1CCCCC1)NC(C)=O)C(=O)N(C)Cc1ccccc1` [Compound P71, Ac-Cha-Arg-Tic-Nle-N(Me)Bn] (Ac-[Cha]R[Tic][Nle]-{NMe(benzyl)}): the “Stability (Arbitrary units) Cath D 4 h” value in data set [3] is 104 Arbitrary units. Further, in data set [4], the “Immunsupressive assays DR4-LN (Max) % Inhibition” value is 102% and the IC50 was 19 µM.
As to `CSCC[C@H](NC(=O)[C@@H]1Cc2ccccc2CN1C(=O)[C@@H](NC(=O)[C@H](CC1CCCCC1)NC(C)=O)C1CCN(C(=N)N)CC1)C(=O)N1CC[C@H](c2ccccc2)[C@H]1C(=O)N[C@@H](CO)c1nc(C(=O)N(C)C)c(C(C)C)o1` [Compound P60, Ac-Cha-Gpg-Tic-Met-βPhPro-[S(oxaz)L]-NMe2] (Ac-[Cha][Gly(1-amidinopiperidin-4-yl)][Tic]M[Pro(3R-Ph)][X1]-NMe2), the values for the IC50 in data set [1], in data set [2] and in data set [4] were 0.23 µM, 2.1 µM and 29 µM, respectively. In data set [3], the “Stability (Arbitrary units) Cath D 4 h” value amounted to 108 Arbitrary units. Also, the “Immunsupressive assays DR4-LN (Max) % Inhibition” value in data set [4] is listed as 97%.
On to `CSCC[C@H](NC(=O)C1c2ccccc2CN1C(=O)[C@@H](NC(=O)[C@H](CC1CCCCC1)NC(C)=O)C1CCN(C(=N)N)CC1)C(N)=O` (stereo partly drawn) [Compound P66-1, Ac-Cha-Gpg-Disc-Met-NH2] (Ac-[Cha][Gly(1-amidinopiperidin-4-yl)][ξDisc]M-NH2), for which the IC50 amounted to 0.29 µM in data set [1], 7.8 µM in data set [2] and 120 µM in data set [4]. For the same molecule, the “Stability (Arbitrary units) Cath D 4 h” value in data set [3] turned out to be 101 Arbitrary units. Besides, the “Immunsupressive assays DR4-LN (Max) % Inhibition” value in data set [4] is given as 20%.
Take `CCCC[C@H](NC(=O)C1c2ccccc2CN1C(=O)[C@H](CCCNC(=N)N)NC(=O)[C@H](CC1CCCCC1)NC(C)=O)C(=O)N(C)Cc1ccccc1` (stereo partly drawn) [Compound P72-1, Ac-Cha-Arg-Disc-Nle-N(Me)Bn] (Ac-[Cha]R[ξDisc][Nle]-{NMe(benzyl)}): the IC50 in data set [1] amounted to 5.2 µM; in data set [2] it was 7.5 µM; in data set [4] it was 31 µM. Further, the “Stability (Arbitrary units) Cath D 4 h” value in data set [3] is 101 Arbitrary units. Further, in data set [4], the “Immunsupressive assays DR4-LN (Max) % Inhibition” value is given as 103%.
For `CSCC[C@H](NC(=O)[C@@H]1Cc2ccccc2CN1C(=O)[C@H](CCCNC(=N)N)NC(=O)[C@H](CC1CCCCC1)NC(C)=O)C(=O)N1CC[C@H](c2ccccc2)[C@H]1C(N)=O` [Compound P31, Ac-Cha-Arg-Tic-Met-βPhPro-NH2] (Ac-[Cha]R[Tic]M[Pro(3R-Ph)]-NH2), the half-inhibitory concentration (IC50) amounted to 0.28 µM in data set [1], 3.7 µM in data set [2] and 18 µM in data set [4]. In data set [3], the “Stability (Arbitrary units) Cath D 4 h” value was 95 Arbitrary units. Further, the “Immunsupressive assays DR4-LN (Max) % Inhibition” value in data set [4] worked out at 64%.
`CCCC[C@H](NC(=O)[C@@H]1Cc2ccccc2CN1C(=O)[C@@H](NC(=O)[C@H](CC1CCCCC1)NC(C)=O)C1CCN(C(=N)N)CC1)C(=O)N(CCOCCO)Cc1ccccc1` [Compound P101, Ac-Cha-Gpg-Tic-Nle-N(Bn)CH2CH2OCH2CH2OH] (Ac-[Cha][Gly(1-amidinopiperidin-4-yl)][Tic][Nle]-X2) displayed an IC50 in data set [1] of 1.5 µM. For the same molecule, in data set [3], the “Stability (Arbitrary units) Cath D 4 h” value is on record as 106 Arbitrary units. In data set [4], the “Immunsupressive assays DR4-LN (Max) % Inhibition” value amounted to 100%; the “immunosuppressive properties as measured by a T-cell activation assay” value was “immunosuppressive properties”; the IC50 is 69 µM and 66 µM.
Take `CCCC[C@H](NC(=O)C1c2ccccc2CN1C(=O)[C@@H](NC(=O)[C@H](CC1CCCCC1)NC(C)=O)C1CCN(C(=N)N)CC1)C(=O)N(C)Cc1ccccc1` (single isomer, unassigned) [Compound P78-1]: the values for the concentration for half-maximal inhibition (IC50) in data set [1], in data set [2] and in data set [4] were 2.3 µM, 9.8 µM and 34 µM, respectively. Further, the “Stability (Arbitrary units) Cath D 4 h” value in data set [3] amounted to 104 Arbitrary units.
As to `CSCC[C@H](NC(=O)[C@@H]1Cc2ccccc2CN1C(=O)[C@H](CCCNC(=N)N)NC(=O)[C@H](CC1CCCCC1)NC(C)=O)C(N)=O` [Compound P1, Ac-Cha-Arg-Tic-Met-NH2] (Ac-[Cha]R[Tic]M-NH2), the half-inhibitory concentration (IC50) in data set [1] is 1.6 µM; in data set [2], 11 µM; in data set [4], 64 µM and 84 µM. Further, the “Stability (Arbitrary units) Cath D 4 h” value in data set [3] was 102 Arbitrary units. For the same molecule, in data set [4], the “Immunsupressive assays DR4-LN (Max) % Inhibition” value came to 41%.
On to `CCCC[C@H](NC(=O)[C@@H]1Cc2ccccc2CN1C(=O)[C@H](CCCNC(=N)N)NC(=O)[C@H](CC1CCCCC1)NC(C)=O)C(=O)N1CC[C@H](c2ccccc2)[C@H]1C(=O)N[C@@H](CO)c1nc(C(=O)N(C)C)c(C(C)C)o1` [Compound P51, Ac-Cha-Arg-Tic-Nle-βPhPro-[S(oxaz)L]-NMe2] (Ac-[Cha]R[Tic][Nle][Pro(3R-Ph)][X1]-NMe2), for which the IC50 in data set [1] is 0.67 µM; in data set [4], 38 µM and 36 µM. For the same molecule, the “Stability (Arbitrary units) Cath D 4 h” value in data set [3] was 103 Arbitrary units. In addition, the “Immunsupressive assays DR4-LN (Max) % Inhibition” value in data set [4] worked out at 100%.
In data set [1], `CSCC[C@H](NC(=O)[C@@H]1Cc2ccccc2CN1C(=O)[C@@H](NC(=O)[C@H](CC1CCCCC1)NC(C)=O)C1CCN(C(=N)N)CC1)C(=O)N(CCOCCO)Cc1ccccc1` [Compound P102, Ac-Cha-Gpg-Tic-Met-N(Bn)CH2CH2OCH2CH2OH] (Ac-[Cha][Gly(1-amidinopiperidin-4-yl)][Tic]M-X2) displayed an IC50 of 1.7 µM. In data set [3], the “Stability (Arbitrary units) Cath D 4 h” value stood at 120 Arbitrary units. In data set [4], the “Immunsupressive assays DR4-LN (Max) % Inhibition” value is 60% and the IC50 turned out to be 110 µM.

The values above are taken from patent US7629318B2, “Immunosuppressant compounds, methods and uses related thereto” (priority 2002, dated 2009).
